{
  "source": "patent US7595404B2",
  "about": "“Thiazolyl-substituted carbocyclic 1,3-diones as pesticidal agents” (Bayer CropScience AG, priority 2001, dated 2009)",
  "key": {"Alopecurus": {"tested_on": "Alopecurus", "experiment": "Post-emergence test, Alopecurus", "type": "in vivo", "details": "post-emergence/greenhouse; 250 g a.i./ha; after three weeks", "procedure": "(§1) • Solvent: 5 parts by weight of acetone • Emulsifier: 1 part by weight of alkylaryl polyglycol ether\n(§2) To produce a suitable preparation of active compound, 1 part by weight of active compound is mixed with the stated amount of solvent, the stated amount of emulsifier is added and the concentrate is diluted with water to the desired concentration.\n(§3) Test plants of a height of 5-15 cm are sprayed with the preparation of active compound such that the particular amounts of active compound desired are applied per unit area. The concentration of the spray liquor is chosen such that the particular amounts of active compound desired are applied in 1000 l of water/ha.\n(§4) After three weeks, the degree of damage to the plants is rated in % damage in comparison to the development of the untreated control.\n(§5) The figures denote: • 0% =no effect (like untreated control) • 100% =total destruction"}, "Wheat": {"tested_on": "Wheat", "experiment": "Pre-emergence test, Wheat", "type": "in vivo", "details": "pre-emergence/greenhouse; 60 g a.i./ha; after three weeks; crop", "procedure": "as §1, §2\n(§6) Seeds of the test plants are sown in normal soil. After about 24 hours, the soil is sprayed with the preparation of active compound such that the particular amounts of active compound desired are applied per unit area. The concentration of the spray liquor is chosen such that the particular amounts of active compound desired are applied in 1000 l of water/ha.\nas §4, §5"}, "Pyricularia oryzae": {"tested_on": "Pyricularia oryzae", "type": "cell-based", "details": "50% inhibition of fungal growth, tested at 0.1, 1, 10 and 100 ppm, 22° C., 3-5 days, photometric 620 nm"}, "Septoria tritici": {"tested_on": "Septoria tritici", "experiment": "In vitro test for the ED50 determination in microorganisms, Septoria tritici", "type": "cell-based", "details": "50% inhibition of fungal growth, tested at 0.1, 1, 10 and 100 ppm, 22° C., 3-5 days, photometric 620 nm"}, "Botrytis cinerea": {"tested_on": "Botrytis cinerea", "experiment": "Botrytis test (bean)/protective", "type": "in vivo", "details": "protective, 500 g/ha, 2 days after inoculation", "procedure": "Botrytis Test (Bean)/Protective\n• Solvent: 24.5 parts by weight of acetone 24.5 parts by weight of dimethylacetamide • Emulsifier: 1 part by weight of alkyl-arylpolyglycol ether\nTo produce a suitable preparation of active compound, 1 part by weight of active compound is mixed with the stated amounts of solvent and emulsifier, and the concentrate is diluted with water to the desired concentration.\nTo test for protective activity, young plants are sprayed with the preparation of active compound at the stated application rate. After the spray coating has dried on, two small pieces of agar colonized by Botrytis cinerea are placed onto each leaf. The inoculated plants are placed in a dark chamber at about 20° C. and 100% relative atmospheric humidity.\n2 days after the inoculation, the size of the infested areas on the leaves is evaluated. 0% means an efficacy which corresponds to that of the control, whereas an efficacy of 100% means that no infection is observed."}, "Soya bean": {"tested_on": "Soya bean", "experiment": "Pre-emergence test, Soya bean", "type": "in vivo", "details": "pre-emergence/greenhouse; 60 g a.i./ha; after three weeks; crop", "procedure": "as §1, §2, §6, §4, §5"}, "[1]": {"tested_on": "apple scab pathogen Venturia inaequalis", "experiment": "Venturia test (apple)/protective", "type": "in vivo", "details": "protective, 100 g/ha, 10 days after inoculation", "procedure": "(§7) Venturia Test (Apple)/Protective […] To produce a suitable preparation of active compound, 1 part by weight of active compound is mixed with the stated amounts of solvent and emulsifier, and the concentrate is diluted with water to the desired concentration. To test for protective activity, young plants are sprayed with the preparation of active compound at the stated application rate. After the spray coating has dried on, the plants are inoculated with an aqueous conidia suspension of the apple scab pathogen Venturia inaequalis and then remain in an incubation cabin at about 20° C. and 100% relative atmospheric humidity for 1 day. The plants are then placed in a greenhouse at about 21° C. and a relative atmospheric humidity of about 90%."}, "Setaria [2]": {"tested_on": "Setaria", "experiment": "Pre-emergence test, Setaria", "type": "in vivo", "details": "pre-emergence/greenhouse; 60 g a.i./ha; after three weeks", "procedure": "as §1, §2, §6, §4, §5"}, "Lolium": {"tested_on": "Lolium", "experiment": "Pre-emergence test, Lolium", "type": "in vivo", "details": "pre-emergence/greenhouse; 60 g a.i./ha; after three weeks", "procedure": "as §1, §2, §6, §4, §5"}, "[3]": {"tested_on": "caterpillars of the armyworm (Spodoptera frugiperda)", "experiment": "Spodoptera frugiperda test", "type": "in vivo", "details": "500 ppm, dipped cabbage leaves", "procedure": "Spodoptera Frugiperda Test • Solvent: 7 parts by weight of dimethylformamide • Emulsifier: 2 parts by weight of alkylaryl polyglycol ether To produce a suitable preparation of active compound, 1 part by weight of active compound is mixed with the stated amounts of solvent and emulsifier, and the concentrate is diluted with emulsifier-containing water to the desired concentration. Cabbage leaves (Brassica oleracea) are treated by being dipped into the preparation of active compound of the desired concentration and are populated with caterpillars of the armyworm (Spodoptera frugiperda) while the leaves are still moist. After the desired period of time, the kill in % is determined. 100% means that all caterpillar larvae have been killed; 0% means that none of the caterpillar have been killed."}, "Sphaerotheca fuliginea": {"tested_on": "Sphaerotheca fuliginea", "experiment": "Sphaerotheca test (cucumber)/protective", "type": "in vivo", "details": "protective, 100 g/ha, 7 days after inoculation", "procedure": "as §7, with “Sphaerotheca” for “Venturia”, “(Cucumber)/Protective” for “(Apple)/Protective”, “spore” for “conidia”, “Sphaerotheca fuliginea.” for “the apple scab pathogen Venturia inaequalis and then remain in an incubation cabin at about 20° C. and 100% relative atmospheric humidity for 1 day.”, “23°” for “21°”, “70%.” for “90%.”"}, "Sinapis": {"tested_on": "Sinapis", "experiment": "Post-emergence test, Sinapis", "type": "in vivo", "details": "post-emergence/greenhouse; 250 g a.i./ha; after three weeks", "procedure": "as §1, §2, §3, §4, §5"}, "Matricaria": {"tested_on": "Matricaria", "experiment": "Pre-emergence test, Matricaria", "type": "in vivo", "details": "pre-emergence/greenhouse; 60 g a.i./ha; after three weeks", "procedure": "as §1, §2, §6, §4, §5"}, "Ustilago avenae": {"tested_on": "Ustilago avenae", "experiment": "In vitro test for the ED50 determination in microorganisms, Ustilago avenae", "type": "cell-based", "details": "50% inhibition of fungal growth, tested at 0.1, 1, 10 and 100 ppm, 22° C., 3-5 days, photometric 620 nm"}, "Avena fatua": {"tested_on": "Avena fatua", "experiment": "Post-emergence test, Avena fatua", "type": "in vivo", "details": "post-emergence/greenhouse; 250 g a.i./ha; after three weeks", "procedure": "as §1, §2, §3, §4, §5"}, "Digitaria": {"tested_on": "Digitaria", "experiment": "Pre-emergence test, Digitaria", "type": "in vivo", "details": "pre-emergence/greenhouse; 60 g a.i./ha; after three weeks", "procedure": "as §1, §2, §6, §4, §5"}, "Setaria [4]": {"tested_on": "Setaria", "experiment": "Post-emergence test, Setaria", "type": "in vivo", "details": "post-emergence/greenhouse; 250 g a.i./ha; after three weeks", "procedure": "as §1, §2, §3, §4, §5"}, "Alternaria solani": {"tested_on": "Alternaria solani", "experiment": "Alternaria test (tomato)/protective", "type": "in vivo", "details": "protective, 100 g/ha, 3 days after inoculation", "procedure": "Alternaria Test (Tomato)/Protective […] To produce a suitable preparation of active compound, 1 part by weight of active compound is mixed with the stated amounts of solvent and emulsifier, and the concentrate is diluted with water to the desired concentration. To test for protective activity, young plants are sprayed with the preparation of active compound at the stated application rate. After the spray coating has dried on, the plants are inoculated with an aqueous spore suspension of Alternaria solani. The plants are then placed in an incubation cabin at about […] and 100% relative atmospheric humidity."}},
  "data": [
    {"smiles": "Cc1sc(-c2ccc(Cl)cc2)nc1C1=C(O)C2(CCCCC2)CC1=O", "note": "[Example I-1-a-2]", "values": [
      {"measurement": "% damage, Alopecurus", "setting": "Alopecurus", "value": 90, "unit": "%"},
      {"measurement": "% damage, Wheat", "setting": "Wheat", "value": 0, "unit": "%"},
      {"measurement": "ED50 value", "setting": "Pyricularia oryzae", "value": "<0.1", "unit": "ppm"},
      {"measurement": "ED50 value", "setting": "Septoria tritici", "value": "<0.1", "unit": "ppm"},
      {"measurement": "% efficacy", "setting": "Botrytis cinerea", "value": 92, "unit": "%"},
      {"measurement": "% damage, Soya bean", "setting": "Soya bean", "value": 0, "unit": "%"},
      {"measurement": "% efficacy", "setting": "[1]", "value": 91, "unit": "%"},
      {"measurement": "% damage, Setaria", "setting": "Setaria [2]", "value": 100, "unit": "%"},
      {"measurement": "% damage, Lolium", "setting": "Lolium", "value": 100, "unit": "%"},
      {"measurement": "Kill rate in % after 7 d", "setting": "[3]", "value": 100, "unit": "%"},
      {"measurement": "% efficacy", "setting": "Sphaerotheca fuliginea", "value": 100, "unit": "%"},
      {"measurement": "% damage, Sinapis", "setting": "Sinapis", "value": 80, "unit": "%"},
      {"measurement": "% damage, Matricana", "setting": "Matricaria", "value": 95, "unit": "%"},
      {"measurement": "ED50 value", "setting": "Ustilago avenae", "value": "<0.1", "unit": "ppm"},
      {"measurement": "% damage, Avena fatua", "setting": "Avena fatua", "value": 100, "unit": "%"},
      {"measurement": "% damage, Digitaria", "setting": "Digitaria", "value": 100, "unit": "%"},
      {"measurement": "% damage, Setaria", "setting": "Setaria [4]", "value": 100, "unit": "%"},
      {"measurement": "% efficacy", "setting": "Alternaria solani", "value": 93, "unit": "%"}
    ]}
  ]
}
